# Measured values as given in US20090191543A1, “IDENTIFICATION OF RAC1B AS A MARKER AND MEDIATOR OF METALLOPROTEINASE-INDUCED MALIGNANCY” (THEREGENTS OF THE UNIVERSITY OF CALIFORNIA, priority 2005, published 2009).
# Experiments:
# 8-oxodeoxyguanosine = assay: 8-oxoG analysis, FITC-avidin nuclear staining (DNA damage); format: cell-based, mouse; settings: for MMP-3-induced increase in FITC-avidin nuclear staining: cells treated with MMP-3 plus inhibitor, FIG. 4b
# Experimental: ROS and 8-oxoG analyses. […] FITC-conjugated avidin (Sigma; 1 hr, 37° C.). […] ID NO: 12). […] J Cell Biol 158, 357-68 (2002).
# MMP-3 = target: T1, MMP-3 (Rattus norvegicus, UniProt P03957); assay: Effect of MMP inhibitor on cells treated with MMP-3 (vimentin-EGFP construct, morphology, FIG. 8b); format: cell-based, mouse
# T1 construct: expressed in transfected cells; host or cells: SCp2 cells; conditioned medium used as the MMP-3 source
# T1 sequence (P03957 98-475): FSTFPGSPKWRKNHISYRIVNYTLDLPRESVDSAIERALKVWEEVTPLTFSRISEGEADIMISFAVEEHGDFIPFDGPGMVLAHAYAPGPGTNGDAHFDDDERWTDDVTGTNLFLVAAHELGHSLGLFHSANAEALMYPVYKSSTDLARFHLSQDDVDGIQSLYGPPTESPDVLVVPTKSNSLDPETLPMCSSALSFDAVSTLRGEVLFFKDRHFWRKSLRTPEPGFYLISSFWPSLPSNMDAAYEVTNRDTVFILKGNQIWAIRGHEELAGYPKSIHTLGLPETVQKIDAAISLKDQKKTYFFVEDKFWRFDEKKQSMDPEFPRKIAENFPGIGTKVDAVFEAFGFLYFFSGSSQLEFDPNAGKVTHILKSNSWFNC
# Excerpt: The MMP inhibitor GM6001 blocked the MMP-3-mediated effects. […] Scale bar, 50 μm.
# vimentin = assay: Mesenchymal vimentin expression; format: cell-based, mouse; settings: for expression of mesenchymal vimentin: MMP-3 4 days or 25 μM H2O2 7 days
# Experimental: (§1) Except as otherwise indicated, cells were incubated in the presence of conditioned medium containing MMP-3 for 4 days and with 25 μM H2O2 for 7 days. NAC was used at a concentration of 10 mM. Antibodies against cytokeratin and vimentin were described previously (Lochter, A. et al. J Biol Chem 272, 5007-15, 1997; Lochter, A. et al. J Cell Biol 139, 1861-72, 1997).
# (§2) […]; all modified plasmids were sequence-verified.
# Snail = Snail transcript expression; format: cell-based, mouse; settings: FIG. 3b; for expression of the transcription factor Snail: MMP-3, or H2O2 in the absence of MMP-3
# Experimental: as §1, §2
# SCp2 cells [1] = assay: PALA resistance assay (genomic instability); format: cell-based, mouse
# SCp2 cells [2] = assay: Cell scattering (FIG. 3f); format: cell-based, mouse
# Experimental: as §1
# cytokeratins = assay: Epithelial cytokeratin levels in MMP-3-treated cells; format: cell-based, mouse
# Excerpt: Cell culture, antibodies, and plasmids. Cell culture was as previously described (Lochter, A. et al. Misregulation of stromelysin-1 expression in mouse mammary tumor cells accompanies acquisition of stromelysin-1-dependent invasive properties. J. Biol Chem 272, 5007-15, 1997; Lochter, A. et al. Matrix metalloproteinase stromelysin-1 triggers a cascade of molecular alterations that leads to stable epithelial-to-mesenchymal conversion and a premalignant phenotype in mammary epithelial cells. J Cell Biol 139, 1861-72, 1997); for gene repression, a 5 mg ml^−1 stock solution of tetracycline in 100% ethanol was diluted 1:1000 into culture medium and changed daily. To stimulate cells with MMP-3, we used medium that had been conditioned by SCp2 cells containing the tet-regulated, autoactivated MMP-3-construct (Lochter, A. et al. J Biol Chem 272, 5007-15, 1997; Lochter, A. et al. J Cell Biol 139, 1861-72, 1997) with expression induced by growth in the absence of tetracycline; conditioned medium from cells repressed by treatment with tetracycline was used for controls. This conditioned medium was analyzed by zymography to verify that only MMP-3 was being expressed, and was shown be active through extracellular proteolysis (FIG. 8). […] NAC was used at a concentration of 10 mM. […]
# SCp2 cells [3] = assay: MMP-3-induced cell motility, invasion and morphological alterations (not shown); format: cell-based, mouse; settings: NAC
# SCp2 cells [4] = assay: LC50 of PALA for SCp2 cells; settings: read-out: LC50 of PALA for SCp2 cells
# CAD locus = assay: Fluorescence in situ hybridization of CAD gene locus; format: cell-based, mouse; settings: exposure to MMP-3; FIG. 4d
# RhoA = settings: MMP-3-treated cells; not shown
# [5] = tested on: keratin, E-cadherin, vimentin, SM actin, TGFβ, Snail, collagen A1 and fibronectin; settings: cells treated with MMP-3 for 4 days; FIG. 5b
# Experimental: (§3) Transcript levels were assessed using RT/PCR by isolating RNA (Tri-pure; Roche Diagnostics), synthesizing cDNA, and performing quantitative, real-time PCR (Lightcycler, Roche Diagnostics); all these experiments were normalized to GAPDH.
# Cdc42 = settings: MMP-3-treated cells; not shown
# SCp2 cells [6] = settings: MMP-3 for 14 days, then selected with PALA; FIG. 4f
# mammary epithelial cells = assay: Cell motility assessed by scratch assay; format: cell-based, mouse; settings: FIG. 1f
# Excerpt: FIG. 1f is a graph showing rate of cell migration and motility as assessed by scratch assay (Goodman, S. L., Vollmers, H. P., and Birchmeier, W. Cell 41, 1029-1038, 1985).
# cellular ROS = settings: treatment with MMP-3; FIG. 2a
# Experimental: ROS and 8-oxoG analyses. To measure ROS concentrations, cells were incubated in the dark with 50 mM DCFDA (Molecular Probes) for 30 min in serum- and phenol-red-free medium. […] Images were captured using a Nikon Diaphot 300 microscope and Spot RT camera and software (Technical Instruments, Burlingame). Fluorescence was quantified using IMAGEJ (URL:=<http://rsb.info.nih.gov/ij/index.html>). For DCFDA staining, cellular fluorescence was quantified, for FITC-avidin staining, nuclear fluorescence was measured (using a DAPI image mask). More than 250 measurements were made for each data point.
# Rac1b = settings: mammary epithelial cells treated with MMP-3; FIGS. 1b-1d
# Experimental: as §3
# For analysis of Rac1 and Rac1b (FIG. 1c), oligonucleotide primers that hybridize to sequences flanking the splice insertion site were used; for specific analysis of Rac1b (FIG. 1d, 4h), oligonucleotide primers specific for the Rac1b splice isoform were used.
# [7] = SCp2 cells, treatment with MMP-3 for 28 days, FIG. 5a
compound,measurement,setting,value
CNC(=O)[C@H](Cc1c[nH]c2ccccc12)NC(=O)[C@@H](CC(=O)NO)CC(C)C [GM6001],MMP-3-induced increase in FITC-avidin nuclear staining,8-oxodeoxyguanosine,blocked
same,MMP-3-mediated effects,MMP-3; cells treated with MMP-3,blocked
same,malignant transformation (flattened morphology of invasive cells) of MMP-3 induced cells,MMP-3; coincubation with GM6001,prevents
"OO [H2O2, reference compound]",expression of mesenchymal vimentin,vimentin; FIG. 3g,can stimulate expression
same,expression of the transcription factor Snail,Snail,induced
same,PALA resistance in the absence of MMP-3,"SCp2 cells [1]; H2O2 25 μM, FIG. 4e",reproduced
same,cell scattering,SCp2 cells [2],cell scattering induced
"CC(=O)N[C@@H](CS)C(=O)O [NAC, N-acetyl cysteine, reference compound]",MMP-3-induced increase in FITC-avidin nuclear staining,8-oxodeoxyguanosine,blocked
same,MMP-3-induced upregulation of mesenchymal vimentin,"vimentin; NAC 10 mM, FIG. 3g",effectively inhibited
same,MMP-3-enhanced expression of transcription factor Snail,Snail; NAC 10 mM,blocked
same,MMP-3-induced PALA resistance / CAD amplification,"SCp2 cells [1]; 14 d treatment with MMP-3, NAC 10 mM, FIG. 4e",inhibited
same,MMP-3-induced downregulation of epithelial cytokeratins,"cytokeratins; NAC 10 mM, FIG. 3a",effectively inhibited
same,"MMP-3-induced cell motility, invasion, and morphological alterations",SCp2 cells [3],inhibited
"O=C(O)C[C@H](NC(=O)CP(=O)(O)O)C(=O)O [PALA, N-(phosphonacetyl)-L-aspartate]",CC50,SCp2 cells [4],25 µM
MMP-3: autoactivated MMP-3 supplied as medium conditioned by SCp2 cells with tet-regulated construct,CAD locus copy number in PALA-resistant cells,CAD locus,amplification of the CAD locus
same,activity of RhoA,RhoA,unchanged
same,transcript levels of keratin and E-cadherin,[5],greater than two-fold decrease
same,"transcript levels of vimentin, SM actin, TGFβ, Snail, collagen A1 and fibronectin",[5],two-fold or greater increase
same,activity of Cdc42,Cdc42,unchanged
same,genomic alterations by CGH analysis,SCp2 cells [6],many additional genomic amplifications and deletions
same,FITC-avidin nuclear staining,"8-oxodeoxyguanosine; cells treated with MMP-3 vs untreated, FIG. 4a",significantly increased
same,expression of mesenchymal vimentin,vimentin; FIG. 3g,can stimulate expression
same,vimentin staining,vimentin; [7],increase in vimentin
same,cell migration and motility,mammary epithelial cells,causes an increase
same,cellular ROS (DCFDA fluorescence),cellular ROS,produced increases
same,expression of the transcription factor Snail,Snail,enhances expression
same,Rac1b transcript and expression levels,Rac1b,upregulates
same,"PALA-resistant colonies, after 28 days of MMP-3 exposure","SCp2 cells [1]; SCp2 cells, 200 μM PALA, after 28 days",700 colonies/10^5 cells
same,"PALA-resistant colonies, after one week of MMP-3 exposure","SCp2 cells [1]; SCp2 cells, 200 μM PALA, one week of MMP-3 exposure",200 colonies/10^5 cells
same,cytokeratin staining,cytokeratins; [7],decrease in cytokeratins
same,cell scattering,SCp2 cells [2],cell scattering induced
